Values of other authors, collected in patent US7144857B2 (priority 2004, dated 2006).

Tested on: sternal wound infections
Conditions: 416 patients, randomized to topical vancomycin; p=0.02

SMILES: CN[C@H](CC(C)C)C(=O)N[C@H]1C(=O)N[C@@H](CC(N)=O)C(=O)N[C@H]2C(=O)N[C@H]3C(=O)N[C@H](C(=O)N[C@H](C(=O)O)c4cc(O)cc(O)c4-c4cc3ccc4O)[C@H](O)c3ccc(c(Cl)c3)Oc3cc2cc(c3O[C@@H]2O[C@H](CO)[C@@H](O)[C@H](O)[C@H]2O[C@H]2C[C@](C)(N)[C@H](O)[C@H](C)O2)Oc2ccc(cc2Cl)[C@H]1O [topical vancomycin, vancomycin]
- decrease of the rate of sternal infection: 7 factor
